{"source": "patent US20250066292A1", "about": "(The Regents of the University of California, priority 2021, published 2025)", "key": {"[1]": {"tested_on": "circulating white blood cells", "settings": "taken regularly, measured in circulating white blood cells; cited from earlier work"}, "[2]": {"tested_on": "CDAHFD induced mouse models of NASH", "assay": "Study 1 NASH/Mouse (CDAHFD diet)", "assay_type": "in vivo, mouse (C57BL/6 male)", "settings": "200 mg/kg once daily gavage for 2 weeks; for intrahepatic fibrosis: compared with control group", "experimental": "Study 1—NASH/Mouse. Mice had at least received 8 weeks of CDAHFD diet before starting the study and continued to receive this diet during the next phase of the study. There were 4 mice per group (C57BL/6 male): • Control group (c1), water administered once daily by gavage for 2 weeks; • 200 mg/kg of Drug 0 once daily gavage therapy for 2 weeks; • 200 mg/kg of Drug 2 once daily gavage therapy for 2 weeks; • 200 mg/kg of Drug 4 once daily gavage therapy for 2 weeks. FIG. 10A depicts the study outline."}, "[3]": {"tested_on": "cystinotic fibroblasts", "assay": "Cysteamine and cystamine (and prodrug) measurement during constant exposure", "assay_type": "cell-based, human", "settings": "100 uM; for Cysteamine levels (intracellular) / cystamine levels (intracellular): constant exposure 0 min to 5 h", "experimental": "(§1) In vitro experiments with prodrugs in cystinotic fibroblasts. Fibroblasts from a de-identified cystinotic patient were split 3× from 2 plates into 12 plates. An experimental compound, BL-0856, was studied using the following protocols. Several timepoints of cystamine was also performed for comparison. The constant incubation time series for the new compound was: 0, 15 min, 30 min, 1 h, 3 h, and 5 h. The cystamine timepoints were 0, 30 min, 1 h, and 5 h. There was also a washout experiment done for 2 timepoints of the experimental compound, where after 3 hours of constant incubation, the media was exchanged with no compound, and incubated for either 1 h or 3 h. Harvesting of cells on the plate went as follows 2× washes with PBS that included 5 mM N-ethylmaleimide for trapping free thiol groups, and then scraping the plates with an acidified organic solvent extraction solution containing d4-NEM-cysteamine, d4-cystine, d8-cystamine, ^13C^15N NEM-glutathione, and ^13C, ^15N GSSG as internal standards. All samples were run on an API 4500 triple quadrupole LC-MS/MS, with selective reaction monitoring (SRM/MRM) for the following compounds of interest: cystine, cysteine, cystamine, reduced glutathione, oxidized glutathione (GSSG). […] All data fit well to single exponential curves (either decay or association), except where mentioned.\nFollowing incubation, cells are washed 2× in PBS containing N-ethylmaleimide."}, "[4]": {"tested_on": "cystinotic fibroblasts", "assay": "Cysteine measurement during constant exposure", "assay_type": "cell-based, human", "settings": "100 uM, compared with cystamine", "experimental": "as §1, with “mentioned. […]” for “mentioned.”"}, "[5]": {"tested_on": "cystinotic fibroblasts", "assay": "Cystine measurement after washout", "assay_type": "cell-based, human", "settings": "100 uM for 3 h, then washout in regular media 0 min, 1 h", "experimental": "as §1, with “mentioned. […]” for “mentioned.”"}, "[6]": {"tested_on": "cystinotic fibroblasts", "assay": "Glutathione and oxidized glutathione measurement during constant exposure", "assay_type": "cell-based, human", "settings": "100 uM; for oxidized glutathione (GSSG) / ratio of GSH/GSSG: versus 0-minute controls", "experimental": "as §1\nGlutathione and oxidized glutathione measurement during constant cystamine or BL-0856 exposure: Fibroblast cultures are exposed to 100 uM cystamine or 100 uM BL-0856 for the following timepoints: 0 min, […], 30 min, 1 h, 3 h, and 5 h. Following incubation, cells are washed 2× in PBS containing N-ethylmaleimide. After removing the wash, the cells are harvested on ice using 80% acetonitrile/1% formic acid, containing stable isotope internal standard for glutathione and oxidized glutathione."}, "[7]": {"assay": "Stability of BL-0856 resuspended in water (LC-MS)", "assay_type": "physicochemical", "settings": "25 mM in water, 1-week post-resuspension", "experimental": "Drug concentrations: BL-0856 powder was resuspended in water at a concentration of 25 mM. 40 μL of this solution was added to 10 mL of media for a final concentration of 100 uM. […] Based upon the LC-MS profile, BL-0856 was likely >80-90% pure (unhydrolyzed) when used in the experiments. A method for the reduced intermediate form was also made, but none of it was found present in the neat standard."}, "[8]": {"tested_on": "cystinotic fibroblasts", "assay": "Cystine measurement during constant cystamine or BL-0856 exposure", "assay_type": "cell-based, human", "settings": "100 uM, constant exposure 0 min to 5 h, compared with cystamine", "experimental": "Drug concentrations: BL-0856 powder was resuspended in water at a concentration of 25 mM. 40 μL of this solution was added to 10 mL of media for a final concentration of 100 uM.\nCystamine was made from high pH oxidation of cysteamine-bitartrate powder (w/Ammonium hydroxide), at a concentration of 25 mM. […] Since this was used for only several timepoints of a control, this was deemed sufficient for this purpose. The drug was also administered to cells at a final concentration of 100 uM.\nIn vitro experiments with prodrugs in cystinotic fibroblasts. Fibroblasts from a de-identified cystinotic patient were split 3× from 2 plates into 12 plates. An experimental compound, BL-0856, was studied using the following protocols. Several timepoints of cystamine was also performed for comparison. The constant incubation time series for the new compound was: 0, 15 min, 30 min, 1 h, 3 h, and 5 h. The cystamine timepoints were 0, 30 min, 1 h, and 5 h. There was also a washout experiment done for 2 timepoints of the experimental compound, where after 3 hours of constant incubation, the media was exchanged with no compound, and incubated for either 1 h or 3 h. […]"}, "[9]": {"tested_on": "Dermal cystinotic fibroblasts", "assay": "Cystine Depletion Study with BL0948, BL0940 or D4-Cystamine", "assay_type": "cell-based, human", "settings": "100 uM in medium, continual exposure", "experimental": "(§2) Cystine Depletion Study. Dermal cystinotic fibroblasts were cultured in medium containing BL0948, BL0940 or D4-Cystamine at the same 100 uM concentration:\nIntracellular cystine depletion over time. […] This likely represents a rapid exposure to D2-cysteamine after intracellular uptake. D4-cystamine will most likely reduce after crossing the cell membrane (peak level seen at 45 mins). BL0948 most likely has reduced to D2-cysteamine and the rearranged isomer in the medium before crossing the cell membrane. It is possible that after extracellular reduction that the ratio of D2-Cysteamine to rearranged analog is 10-20:1."}, "[10]": {"tested_on": "cystinotic fibroblasts", "assay": "Intracellular D2-cysteamine and prodrug levels following continual drug exposure", "assay_type": "cell-based, human", "settings": "for intracellular D2-cysteamine levels: 100 uM in media, continual exposure", "experimental": "as §2\nIntracellular D2-cysteamine levels are measured following continual drug exposure (in media) to cystinotic fibroblasts (FIG. 7)."}, "[11]": {"assay": "Prodrug stability and conversion in the medium and within the cell", "assay_type": "in vitro ADME", "description": "This prodrug analog, BL0940, is very stable both in the medium and within the cell."}, "[12]": {"settings": "400-1000 IU/day for 4-10 months, cited from earlier work"}, "[13]": {"tested_on": "CDAHFD induced mouse models of NASH", "assay": "Murine CDAHFD NASH Study 2 comparing prodrug analogs BL0940 and BL0948", "assay_type": "in vivo, mouse (C57BL/6 male)", "settings": "lower dose of BL0940, once daily gavage", "description": "Mice had at least received 8 weeks of CDAHDF diet before starting the study and continued to receive this diet during the next phase of the study. There were 8 mice per group (C57BL/6 male).\n• HD BL0940 (High dose) once daily by gavage therapy for 4 • LD BL0940 (low dose) once daily by gavage therapy for 4 • BL0948 once daily by gavage therapy for 4 weeks\nThe MW of BL0940 is higher than BL0948 and so a higher dose was given. That is, HD BL0940 and BL0948 had capability of releasing same number of D2-cysteamine molecules."}}}
{"molecule": "NCCS", "note": "[cysteamine]", "values": [{"measurement": "depletion of intracellular cystine", "setting": "[1]", "result": "up to 90%"}]}
{"molecule": "[2H]C(CN)SSC([2H])CN", "note": "(stereo not shown) [D2-cystamine]", "values": [{"measurement": "intrahepatic fibrosis", "setting": "[2]", "result": "significant reduction"}, {"measurement": "markers of fibrosis (aSMA)", "setting": "[2]; versus control groups", "result": "significant reduction"}, {"measurement": "markers of inflammation (F4/80)", "setting": "[2]; versus control groups", "result": "significant reduction"}, {"measurement": "markers of inflammation (FIG. 12A-B)", "setting": "[2]; versus control groups", "result": "significant reduction"}]}
{"molecule": "Cl.Cl.Cl.NCCSSC[C@H](N)C(=O)SCCN", "note": "[BL-0856, (S)-3-((2-ammonioethyl)disulfaneyl)-1-((2-ammonioethyl)thio)-1-oxopropan-2-aminium chloride]", "values": [{"measurement": "BL-0856 and the thiol reduced intermediate in cells", "setting": "[3]; any of the timepoints, LC-MS/MS", "result": "not found at high enough levels to be identified"}, {"measurement": "Cysteamine levels (intracellular)", "setting": "[3]", "result": "nearly identical"}, {"measurement": "cystamine levels (intracellular)", "setting": "[3]", "result": "some cystamine still exists"}, {"measurement": "cysteine (intracellular)", "setting": "[4]", "result": "higher"}, {"measurement": "cystine reaccumulation rate", "setting": "[5]", "result": "comparable to cystamine"}, {"measurement": "glutathione", "setting": "[6]; between the 2 drug forms", "result": "no obvious differences"}, {"measurement": "oxidized glutathione (GSSG)", "setting": "[6]", "result": "goes up at the first timepoint"}, {"measurement": "ratio of GSH/GSSG", "setting": "[6]", "result": "lower throughout all timepoints"}, {"measurement": "content of resuspended drug (stability in water)", "setting": "[7]", "result": "contained cysteamine and cystamine"}, {"measurement": "cystine depletion rates", "setting": "[8]", "result": "nearly identical"}]}
{"molecule": "[2H]C([2H])(CN)SC(C)=O", "note": "[BL0948]", "values": [{"measurement": "intracellular cystine depletion (effect on cystine levels)", "setting": "[9]", "result": "rapid and more profound"}, {"measurement": "intracellular cystine depletion (effect on cystine levels)", "setting": "[9]; listed as BL-948", "result": "pronounced effect"}, {"measurement": "intracellular D2-cysteamine levels", "setting": "[10]", "result": "relatively high level"}, {"measurement": "conversion of prodrug to D2-cysteamine", "setting": "[11]; portion rearranges to the N-acetylated isomer", "result": "does not convert entirely to D2-cysteamine"}]}
{"molecule": "[2H]C([2H])(CN)SSC([2H])([2H])CN", "note": "[D4-cystamine]", "values": [{"measurement": "intrahepatic fibrosis", "setting": "[2]", "result": "significant reduction"}]}
{"molecule": "NCCSSCCN", "note": "[cystamine, reference compound]", "values": [{"measurement": "Cysteamine levels (intracellular)", "setting": "[3]", "result": "nearly identical"}, {"measurement": "cystamine levels (intracellular)", "setting": "[3]", "result": "higher"}, {"measurement": "oxidized glutathione (GSSG)", "setting": "[6]", "result": "goes up at the first timepoint"}, {"measurement": "ratio of GSH/GSSG", "setting": "[6]", "result": "lower throughout all timepoints"}]}
{"molecule": "vitamin E", "values": [{"measurement": "mean AST levels after treatment", "setting": "[12]; decreased from 104±61 IU/L", "result": "33±11", "unit": "IU/L"}, {"measurement": "mean ALT levels after treatment", "setting": "[12]; decreased from 175±106 IU/L", "result": "40±26", "unit": "IU/L"}]}
{"molecule": "[2H]C([2H])(CN)SSC[C@H](NC(C)=O)C(=O)OCC", "note": "[BL0940]", "values": [{"measurement": "intracellular cystine depletion (effect on cystine levels)", "setting": "[9]", "result": "less of an effect compared to D4-cystamine"}, {"measurement": "effect on markers of inflammation, remodeling and fibrosis", "setting": "[13]", "result": "did not have the same degree of effect"}, {"measurement": "intracellular D2-cysteamine levels", "setting": "[10]", "result": "increase over time"}, {"measurement": "intracellular levels of BL0940", "setting": "[10]; continued exposure, e.g. at 240 minute time points", "result": "increase over time"}, {"measurement": "stability in the medium and within the cell", "setting": "[11]", "result": "very stable"}]}
